“And” between values parts separate entries of the source, which are not always exact repeats. Equal entries are not always repeated. “Also recorded” adds a separate entry of the source. Where two headings read alike, the source gives them in different places.
Experiment: Plasma kinetics in rat following intravenous and oral administration
Type: in vivo, Sprague Dawley rats
Conditions: male rats
Description: This study determined the intravenous pharmacokinetics and oral bioavailability of compound 1 of the invention (see FIG. 1A, structure no. 1), compound 2 of the invention (see FIG. 1D, structure no. 19) and compound 3 of the invention (see FIG. 1I, structure no. 53) following administration to Sprague Dawley rats at a dose level of 10 mg/kg.
Six groups of 3 male rats received either a single intravenous or single oral administration of compound 1, 2 or 3 of the invention at a dose level of 10 mg/kg. Blood samples were obtained at various times after dosing. Plasma samples were analysed for unchanged test item using a suitable LC-MS/MS method. Pharmacokinetic parameters were estimated from individual plasma concentrations.
Eighteen male rats each received either a single intravenous or a single oral administration of either compound 1, 2 or 3 at a dose level of 10 mg/kg. The formulation was orally administered to each animal by gastric gavage and intravenously administered to each animal via a tail vein. The dose was administered at a dose volume of 5 mL/kg. The formulations were administered to each animal according to the details in the following table:
Blood samples (ca 0.3 mL) were removed from the femoral vein of each animal into tubes containing lithium heparin as anticoagulant.
Blood samples were collected from 3 rats at the following times after dose administration: • 3, 6, 15, 45 min and 1.5, 2.5, 4, 6, 8, 24 h post dose. Oral Administration
Blood samples were collected from 3 rats at the following times after dose administration: • 5, 15, 45 min and 1.5, 2.5, 4, 6, 8, 24 h post dose. Processing of Blood Samples
Pharmacokinetic parameters of compound 1, 2 and 3 were derived by non-compartmental analysis using WinNonLin Pro version 5.0.1 (Pharsight 2005). The following parameters were derived, where appropriate, from the individual plasma concentration versus time profiles:
• F % The absolute oral bioavailability calculated as [AUC0-t (oral)*Dose(iv)/AUC0-t (iv)*Dose (oral)]*100 based on mean values derived after oral and intravenous administration Consideration was given to the estimation of λz and corresponding t1/2 values. Three or more points are required within the terminal phase for λz and t1/2 to be estimated. The following additional variables were tabulated to aid identification of potentially unreliable estimates of t1/2 and AUC:
Pharmacokinetic parameters were reported as geometric mean except Tmax which was reported as the median. Geometric coefficient of variation was calculated as: […]
Actual sampling times were used for all calculations of pharmacokinetic parameters. Plasma concentrations that were below the limit of quantification were taken as zero for the pharmacokinetic analysis.

[1] = oral 10 mg/kg, individual animals, acetate, 10 mg/kg

Cmax (male, Sprague Dawley, rat, plasma, po, 10 mg/kg, oral 10 mg/kg, Arithmetic Mean, read-out: Cmax): 104 ng/mL
Tmax (male, Sprague Dawley, rat, plasma, po, 10 mg/kg, oral 10 mg/kg, Arithmetic Mean, read-out: tmax): 6.65 h
AUC(0-t) (male, Sprague Dawley, rat, plasma, po, 10 mg/kg, oral 10 mg/kg, Geometric mean, read-out: AUC0-t): 1340 ng·h/mL
Cmax (male, Sprague Dawley, rat, plasma, po, 10 mg/kg, oral 10 mg/kg, Geometric mean, read-out: Cmax): 104 ng/mL
Tmax (male, Sprague Dawley, rat, plasma, po, 10 mg/kg, oral 10 mg/kg, Geometric mean, read-out: tmax): 6.34 h
AUC(0-t) (male, Sprague Dawley, rat, plasma, po, 10 mg/kg, oral 10 mg/kg, Median, read-out: AUC0-t): 1460 ng·h/mL
Cmax (male, Sprague Dawley, rat, plasma, po, 10 mg/kg, oral 10 mg/kg, Median, read-out: Cmax): 104 ng/mL
Tmax (male, Sprague Dawley, rat, plasma, po, 10 mg/kg, oral 10 mg/kg, Median, read-out: tmax): 7.97 h
AUC(0-inf) (male, Sprague Dawley, rat, plasma, po, 10 mg/kg, oral 10 mg/kg, individual animals): 1130 ng·h/mL
AUC(0-t) (male, Sprague Dawley, rat, plasma, po, 10 mg/kg, oral 10 mg/kg, individual animals, read-out: AUC0-t): 1500 ng·h/mL
Cmax (male, Sprague Dawley, rat, plasma, po, 10 mg/kg, oral 10 mg/kg, individual animals, read-out: Cmax): 106 ng/mL
MRT (male, Sprague Dawley, rat, plasma, po, 10 mg/kg, oral 10 mg/kg, individual animals, read-out: MRT): 7.86 h
half-life (male, Sprague Dawley, rat, plasma, po, 10 mg/kg, oral 10 mg/kg, individual animals, read-out: t1/2 (converted)): 4.61 h
Tmax (male, Sprague Dawley, rat, plasma, po, 10 mg/kg, oral 10 mg/kg, individual animals, read-out: tmax): 7.97 h
Tmax (male, Sprague Dawley, rat, plasma, po, 10 mg/kg, oral 10 mg/kg, from mean plasma concentrations, read-out: time post dose at which maximum plasma concentration was observed (tmax)): 8 h
half-life (male, Sprague Dawley, rat, plasma, po, 10 mg/kg, oral 10 mg/kg, read-out: apparent terminal half-life (converted)): 4.61 h
concentration at 0.08 h (male, Sprague Dawley, rat, plasma, po, 10 mg/kg, single oral 10 mg/kg, 0.08 h, individual animals, LLOQ 2.50 (Table X: * 5.0, ** 25, diluted samples), read-out: Sample Concentration in plasma): 2.66 ng/mL
concentration at 0.08 h (male, Sprague Dawley, rat, plasma, po, 10 mg/kg, single oral 10 mg/kg, 0.08 h, mean, read-out: Mean Concentration in plasma): 2.66 ng/mL
concentration at 0.25 h (male, Sprague Dawley, rat, plasma, po, 10 mg/kg, single oral 10 mg/kg, 0.25 h, individual animals, read-out: Sample Concentration in plasma): 6.53 ng/mL
concentration at 0.25 h (male, Sprague Dawley, rat, plasma, po, 10 mg/kg, single oral 10 mg/kg, 0.25 h, mean of 3, read-out: Mean Concentration in plasma): 7.29 ng/mL
concentration at 0.75 h (male, Sprague Dawley, rat, plasma, po, 10 mg/kg, single oral 10 mg/kg, 0.75 h, mean of 3, read-out: Mean Concentration in plasma): 17.3 ng/mL
concentration at 1.5 h (male, Sprague Dawley, rat, plasma, po, 10 mg/kg, single oral 10 mg/kg, 1.5 h, mean of 3, read-out: Mean Concentration in plasma): 39.1 ng/mL
concentration at 2.5 h (male, Sprague Dawley, rat, plasma, po, 10 mg/kg, single oral 10 mg/kg, 2.5 h, individual animals, read-out: Sample Concentration in plasma): 65.9 ng/mL
concentration at 2.5 h (male, Sprague Dawley, rat, plasma, po, 10 mg/kg, single oral 10 mg/kg, 2.5 h, mean of 3, read-out: Mean Concentration in plasma): 60.1 ng/mL
concentration at 4 h (male, Sprague Dawley, rat, plasma, po, 10 mg/kg, single oral 10 mg/kg, 4 h, individual animals, read-out: Sample Concentration in plasma): 102 ng/mL
concentration at 4 h (male, Sprague Dawley, rat, plasma, po, 10 mg/kg, single oral 10 mg/kg, 4 h, mean of 3, read-out: Mean Concentration in plasma): 90.3 ng/mL
concentration at 6 h (male, Sprague Dawley, rat, plasma, po, 10 mg/kg, single oral 10 mg/kg, 6 h, individual animals, read-out: Sample Concentration in plasma): 72.3 ng/mL
concentration at 6 h (male, Sprague Dawley, rat, plasma, po, 10 mg/kg, single oral 10 mg/kg, 6 h, mean of 3, read-out: Mean Concentration in plasma): 86.5 ng/mL
concentration at 8 h (male, Sprague Dawley, rat, plasma, po, 10 mg/kg, single oral 10 mg/kg, 8 h, individual animals, LLOQ 2.50, read-out: Sample Concentration in plasma): 68.8 ng/mL
concentration at 8 h (male, Sprague Dawley, rat, plasma, po, 10 mg/kg, single oral 10 mg/kg, 8 h, mean, LLOQ 2.50, read-out: Mean Concentration in plasma): 92.9 ng/mL
concentration at 24 h (male, Sprague Dawley, rat, plasma, po, 10 mg/kg, single oral 10 mg/kg, 24 h, individual animals, LLOQ 2.50, read-out: Sample Concentration in plasma): 5.35 ng/mL
concentration at 24 h (male, Sprague Dawley, rat, plasma, po, 10 mg/kg, single oral 10 mg/kg, 24 h, mean, LLOQ 2.50, read-out: Mean Concentration in plasma): 7.68 ng/mL
mean absorption time (MAT) (oral 10 mg/kg): 2.10 h
MAT (oral 10 mg/kg, individual animals): 2.10 h
AUC(0-t) [1]: 1094 ng·h/mL and 1460 ng·h/mL
Cmax [1]: 102 ng/mL
Tmax [1]: 4.00 h and 7.98 h
maximum observed plasma concentration, mean value (oral 10 mg/kg, at tmax): 92.9 ng/mL
Sample Concentration in plasma (single intravenous 10 mg/kg, 0.05 h, individual animals, acetate, 10 mg/kg): 1650 ng/mL and 3630 ng/mL and 1460 ng/mL
Sample Concentration in plasma (single intravenous 10 mg/kg, 0.1 h, individual animals, acetate, 10 mg/kg): 1220 ng/mL and 1200 ng/mL
Sample Concentration in plasma (single intravenous 10 mg/kg, 0.25 h, individual animals, acetate, 10 mg/kg): 830 ng/mL and 696 ng/mL
Sample Concentration in plasma (single intravenous 10 mg/kg, 0.75 h, individual animals, acetate, 10 mg/kg): 332 ng/mL and 402 ng/mL
Sample Concentration in plasma (single intravenous 10 mg/kg, 1.5 h, individual animals, acetate, 10 mg/kg): 236 ng/mL and 340 ng/mL
Sample Concentration in plasma (single intravenous 10 mg/kg, 2.5 h, individual animals, acetate, 10 mg/kg): 202 ng/mL and 259 ng/mL
Sample Concentration in plasma (single intravenous 10 mg/kg, 4 h, individual animals, acetate, 10 mg/kg): 208 ng/mL and 238 ng/mL
Sample Concentration in plasma (single intravenous 10 mg/kg, 6 h, individual animals, acetate, 10 mg/kg): 172 ng/mL and 168 ng/mL
Sample Concentration in plasma (single intravenous 10 mg/kg, 8 h, individual animals, LLOQ 2.50, acetate, 10 mg/kg): 151 ng/mL and 135 ng/mL and 5.04 ng/mL
Sample Concentration in plasma (single intravenous 10 mg/kg, 24 h, individual animals, LLOQ 2.50, acetate, 10 mg/kg): 13.2 ng/mL and 16.8 ng/mL and 30.7 ng/mL
Sample Concentration in plasma (single oral 10 mg/kg, 0.08 h, individual animals, LLOQ 2.50 (Table X: * 5.0, ** 25, diluted samples), acetate, 10 mg/kg): *<LLOQ; also recorded: **<LLOQ
Sample Concentration in plasma (single oral 10 mg/kg, 0.25 h, individual animals, acetate, 10 mg/kg): 5.92 ng/mL and 9.43 ng/mL
Sample Concentration in plasma (single oral 10 mg/kg, 0.75 h, individual animals, acetate, 10 mg/kg): 11.8 ng/mL and 15.9 ng/mL and 24.1 ng/mL
Sample Concentration in plasma (single oral 10 mg/kg, 1.5 h, individual animals, acetate, 10 mg/kg): 20.5 ng/mL and 52.1 ng/mL and 44.6 ng/mL
Sample Concentration in plasma (single oral 10 mg/kg, 2.5 h, individual animals, acetate, 10 mg/kg): 57.1 ng/mL and 57.2 ng/mL
Sample Concentration in plasma (single oral 10 mg/kg, 4 h, individual animals, acetate, 10 mg/kg): 79.4 ng/mL and 89.4 ng/mL
Sample Concentration in plasma (single oral 10 mg/kg, 6 h, individual animals, acetate, 10 mg/kg): 98.4 ng/mL and 88.8 ng/mL
Sample Concentration in plasma (single oral 10 mg/kg, 8 h, individual animals, LLOQ 2.50, acetate, 10 mg/kg): 104 ng/mL and 106 ng/mL
Sample Concentration in plasma (single oral 10 mg/kg, 24 h, individual animals, LLOQ 2.50, acetate, 10 mg/kg): 7.50 ng/mL and 10.2 ng/mL
Structure (SMILES): N=C(N)NN=CC=Cc1cccn1-c1ccc(Cl)cc1 [Compound 1, [1-(4-chlorophenyl)-1H-pyrrol-2-yl-allylideneamino]guanidinium acetate]
adverse effects (single intravenous or oral administration, 10 mg/kg, acetate): No adverse effects; also recorded: No adverse affects

Reference: US8058306B2, “Phenyl pyrrole aminoguanidine derivatives” (Action Pharma A/S, priority 2006, dated 2011)
